# Experimental data reported in publication PMC5794198, “Inhibitors of Trypanosoma cruzi Sir2 related protein 1 as potential drugs against Chagas disease” (PLoS Neglected Tropical Diseases, 2018).
# Entries after “also recorded” stand apart in the source; their conditions may differ. Like-named read-outs stand apart in the source and are kept apart here.
# Key:
# [1] = target: TcSir2rp1 (Trypanosoma cruzi, UniProt Q4DVL9); assay: TcSir2rp1 NAD+-dependent deacetylase fluorimetric assay (CycLex kit); type: biochemical; conditions: for inhibition at 10 µM / Inhibition of NAD+-dependent deacetylase activity of TcSir2rp1: single dose 10 μM, 200 μM NAD+, 10 μM peptide
# Protocol: The deacetylase activity was measured using the commercial SIRT1/Sir2 Deacetylase Fluorometric Assay Kit (CycLex,Japan) according to the manufacturer’s recommendations. Briefly, fluorescence emission after digestion of deacetylated substrates by a lysine specific endopeptidase was measured in a fluorometric plate reader (Synergy HT, BioTek) with excitation and emission wavelengths set at 340 and 440 nm, respectively, every 30 seconds for 1 hour. The slope of the linear part of the reaction was calculated and used as readout of enzyme activity. […]
# (§1) A variety of the bisnaphthalimidopropyl (BNIPs) derivatives, as well as the newly synthetized derivatives were evaluated as potential TcSir2rp1 inhibitors. The enzymatic reactions were performed using a commercially available CycLex SIRT1/Sir2 deacetylase fluorimetric kit (CycLex Co. Ltd., Nagano, Japan) in the absence and presence of the various inhibitors, 200 μM NAD^+ and 10 μM of peptide substrate as previously described.
# as §1, with “µM” for “μM”
# [2] = target: T1, human SIRT1 (Homo sapiens, UniProt Q96EB6); assay: hSIRT1 deacetylase inhibition (CycLex kit); type: biochemical; conditions: 10 µM, n=2, N.I. = no inhibition; for inhibition at 10 µM: read-out: hSIRT1 Inhibition at 10 µM (% ± SD)
# T1 sequence (Q96EB6 1-747): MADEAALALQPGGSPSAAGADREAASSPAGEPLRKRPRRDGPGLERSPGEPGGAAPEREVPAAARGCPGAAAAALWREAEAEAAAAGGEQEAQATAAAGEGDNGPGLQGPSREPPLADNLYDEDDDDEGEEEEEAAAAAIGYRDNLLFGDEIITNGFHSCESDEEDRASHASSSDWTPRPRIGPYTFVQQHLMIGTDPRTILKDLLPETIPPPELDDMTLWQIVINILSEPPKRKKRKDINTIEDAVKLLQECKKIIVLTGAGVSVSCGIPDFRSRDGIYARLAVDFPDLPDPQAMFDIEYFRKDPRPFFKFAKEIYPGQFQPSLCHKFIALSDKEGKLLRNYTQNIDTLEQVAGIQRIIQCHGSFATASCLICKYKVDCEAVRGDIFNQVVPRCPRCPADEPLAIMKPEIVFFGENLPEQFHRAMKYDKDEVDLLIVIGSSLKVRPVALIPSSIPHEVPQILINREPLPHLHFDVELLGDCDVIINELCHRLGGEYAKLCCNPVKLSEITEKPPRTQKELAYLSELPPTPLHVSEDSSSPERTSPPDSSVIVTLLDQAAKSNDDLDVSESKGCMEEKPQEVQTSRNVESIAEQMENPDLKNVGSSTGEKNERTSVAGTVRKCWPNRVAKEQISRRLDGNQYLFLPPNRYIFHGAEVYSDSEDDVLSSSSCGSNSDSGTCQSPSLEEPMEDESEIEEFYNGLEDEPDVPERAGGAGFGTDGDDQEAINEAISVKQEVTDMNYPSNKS
# [3] = C2C12 host cell cytotoxicity (cell ratio) in HCS assay; type: cell-based, Mouse; conditions: mouse, cell ratio, 72 h; read-out: C2C12 Cytotoxicity (CC50 ± SD)
# Protocol: (§2) For the evaluation of the activity against T. cruzi amastigotes, high-content screening (HCS) was designed. In summary, 100 μL of host C2C12 cells (ATCC) were seeded in clear bottom black 96-well plates at a density of 2.5 x 10^4 cells/mL (2.5 × 10^3 cells/well). […] The parasites were allowed to infect for a 24 hr period, after which compounds were added in a volume of 50 μL. […] After 72 hrs of compound incubation, the wells were fixed with 4% paraformaldehyde for 15 to 30 mins. The plates were then washed once with deionized water and stained with a solution of DAPI (3 μM) for 1 hour. Plates were imaged in an INCell 2000 (GE Healthcare) high-content analyser by taking 16 pictures per well at 20 X objective amplification. Images were analysed with INCell Developer software (GE Healthcare) using the segmentation of host cell nuclei and parasite kinetoplast DNA. The measurement output used was the average number of parasites per cell calculated by the ratio of host cell nuclei/parasite kinetoplast DNA.
# [4] = tested on: C2C12 cells; assay: as above; type: cell-based, Mouse; conditions: for Selectivity Index: CC50 cell line (C2C12)/EC50 T. cruzi; for CC50: cell ratio, 72 h, read-out: C2C12 Cytotoxicity (CC50 ± SD)
# Protocol: as §2
# [5] = tested on: T. cruzi amastigotes; assay: High-content screening assay on intracellular T. cruzi amastigotes; type: cell-based, Trypanosoma cruzi; conditions: for EC50: Y strain in C2C12 host cells, 72 h, read-out: Anti-T. cruzi Activity Amastigotes (EC50 ± SD)
# Protocol: For the evaluation of the activity against T. cruzi amastigotes, high-content screening (HCS) was designed. In summary, 100 μL of host C2C12 cells (ATCC) were seeded in clear bottom black 96-well plates at a density of 2.5 x 10^4 cells/mL (2.5 × 10^3 cells/well). After 24 hrs, 50 μL of Y strain tissue culture-derived trypomastigotes were used to infect the host cells at a density of 7.5 x 10^5/mL (3.75 x 10^4 parasites/well). The parasites were allowed to infect for a 24 hr period, after which compounds were added in a volume of 50 μL. […] After 72 hrs of compound incubation, the wells were fixed with 4% paraformaldehyde for 15 to 30 mins. The plates were then washed once with deionized water and stained with a solution of DAPI (3 μM) for 1 hour. Plates were imaged in an INCell 2000 (GE Healthcare) high-content analyser by taking 16 pictures per well at 20 X objective amplification. Images were analysed with INCell Developer software (GE Healthcare) using the segmentation of host cell nuclei and parasite kinetoplast DNA. The measurement output used was the average number of parasites per cell calculated by the ratio of host cell nuclei/parasite kinetoplast DNA.
# In this assay, the compounds are incubated for 72 hours with cells previously infected with wild-type trypomastigotes for 24 hours. The readout was done by comparing the average number of amastigotes per cell that developed by the end of the incubation period. The quality of the assay was statistically evaluated by the calculation of the z-factor [75], that represents the reliability of the assay in distinguishing positive controls confidently from negative controls. Varying from 0 to 1, z-factor values higher than 0.5 are considered acceptable for drug screening. The z-factor obtained was 0.68, validating the use of the assay (S3B Fig).
# [6] = Solubility; type: physicochemical; conditions: limits the concentration tested
# TcSir2rp1, sequence (Q4DVL9 entry or part of it): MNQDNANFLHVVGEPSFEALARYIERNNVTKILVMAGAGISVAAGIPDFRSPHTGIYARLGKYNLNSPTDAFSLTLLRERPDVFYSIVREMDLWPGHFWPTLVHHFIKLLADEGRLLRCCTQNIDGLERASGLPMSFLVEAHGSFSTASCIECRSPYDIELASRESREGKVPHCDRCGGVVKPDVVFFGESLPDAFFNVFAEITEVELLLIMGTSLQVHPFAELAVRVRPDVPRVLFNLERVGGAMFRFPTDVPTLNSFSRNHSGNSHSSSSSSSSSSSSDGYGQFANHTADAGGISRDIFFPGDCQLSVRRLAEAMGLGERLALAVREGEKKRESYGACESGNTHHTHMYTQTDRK
SMILES,inhibition at 10 µM [2],hSIRT1 Inhibition at 10 µM (% ± SD) [2],CC50 at 72 h [3],Selectivity Index [4],"EC50 ([5]; Trypanosoma cruzi, C2C12, 72 h)",also measured
O=C1c2cccc3cccc(c23)C(=O)N1CCCNC1CCC(CC2CCC(NCCCN3C(=O)c4cccc5cccc(c45)C3=O)CC2)CC1 (stereo not shown) [Compound 6b],44 ± 8%,,,,,inhibition at 10 µM [1]: 8 ± 5%
O=C1c2cccc3cccc(c23)C(=O)N1CCCN1CCC(CCCC2CCN(CCCN3C(=O)c4cccc5cccc(c45)C3=O)CC2)CC1 [Compound 6a],3 ± 4%,,2880 ± 120 nM,2.0,1450 ± 300 nM,
O=C1c2cccc3cccc(c23)C(=O)N1CCCNC1CCC(NCCCN2C(=O)c3cccc4cccc(c34)C2=O)CC1 (stereo not shown) [Compound 1a],,1 ± 1%,,1.4,,CC50 [4]: 8740 ± 1140 nM; EC50 [5]: 6090 ± 140 nM
O=C1c2cccc3cccc(c23)C(=O)N1CCCNCCCNCCCCNCCCNCCCN1C(=O)c2cccc3cccc(c23)C1=O [Compound 10],,,,,,Solubility in assay (qualitative) [6]: poor solubility
O=C1c2cccc3cccc(c23)C(=O)N1CCCNCCCCNCCCN1C(=O)c2cccc3cccc(c23)C1=O [Compound 1],,,2910 ± 940 nM,1.7,1710 ± 230 nM,
"CC(/C=C/C(=O)NO)=C\[C@@H](C)C(=O)c1ccc(N(C)C)cc1 [trichostatin A, reference compound]",,,,,,TcSir2rp1 deacetylase activity still displayed ([1]; inhibitor at 1 μM): 77 ± 8%
O=C1c2cccc3cccc(c23)C(=O)N1CCCNCCCCCCCCNCCCN1C(=O)c2cccc3cccc(c23)C1=O [Compound 5],,,,,,Inhibition of NAD+-dependent deacetylase activity of TcSir2rp1 [1]: not active; also recorded: very little if any activity; Activity against amastigotes (primary screening) ([5]; single dose screening): very little if any activity
O=C1c2cccc3cccc(c23)C(=O)N1CCCNCCCCCCCCCCCCNCCCN1C(=O)c2cccc3cccc(c23)C1=O [Compound 8],,,1910 ± 60 nM,1.3,1430 ± 100 nM,inhibition at 50 µM [1]: 31 ± 9%; Inhibition of NAD+-dependent deacetylase activity of TcSir2rp1 [1]: statistically significant inhibition
O=C1c2cccc3cccc(c23)C(=O)N1CCCNc1ccc(Cc2ccc(NCCCN3C(=O)c4cccc5cccc(c45)C3=O)cc2)cc1 [Compound 6c],8 ± 1%,,,,,Solubility in assay (qualitative) [6]: poor solubility
O=C1c2cccc3cccc(c23)C(=O)N1CCCNc1ccc(NCCCN2C(=O)c3cccc4cccc(c34)C2=O)cc1 [Compound 1c],,N.I.,,,,
O=C1c2cccc3cccc(c23)C(=O)N1CCCNC1CCC(NCCCN2C(=O)c3cccc4cccc(c34)C2=O)CC1 (stereo not shown) [Compound 1b],,3 ± 4%,,> 3.2,,CC50 [4]: > 2500 nM; EC50 [5]: 780 ± 120 nM

# The next lines start with results.
inhibition at 10 µM [2],hSIRT1 Inhibition at 10 µM (% ± SD) [2],SMILES,CC50 at 72 h [3],Selectivity Index [4],"EC50 ([5]; Trypanosoma cruzi, C2C12, 72 h)",also measured
3 ± 4%,,O=C1c2cccc3cccc(c23)C(=O)N1CCCNCCOCCOCCNCCCN1C(=O)c2cccc3cccc(c23)C1=O [Compound 9a],7370 ± 650 nM,2.1,3430 ± 570 nM,inhibition at 50 µM [1]: 29 ± 4%; Inhibition of NAD+-dependent deacetylase activity of TcSir2rp1 [1]: statistically significant inhibition; inhibition at 10 µM [1]: 28 ± 13%
,N.I.,C[N+]1(CCCN2C(=O)c3cccc4cccc(c34)C2=O)CCN(CCCN2C(=O)c3cccc4cccc(c34)C2=O)CC1 [Compound 12],> 50000 nM,> 1.7,28700 ± 4090 nM,
15 ± 4%,,O=C1c2cccc3c(Cl)ccc(c23)C(=O)N1CCCN1CCN(CCCN2C(=O)c3cccc4c(Cl)ccc(c34)C2=O)CC1 [Compound 13],> 2500 nM,,590 ± 230 nM,"inhibition at 20 µM [1]: 48 ± 6%; Inhibition of T. cruzi enzyme relative to hSIRT1, fold higher ([1]; both at 10 μM): at least 3 fold; Inhibition of NAD+-dependent deacetylase activity of TcSir2rp1 [1]: statistically significant inhibition; inhibition at 10 µM [1]: 50 ± 8%; Solubility in assay (qualitative) [6]: low solubility"
,N.I.,O=C1c2cccc3cccc(c23)C(=O)N1CCCNCCCN1CCN(CCCNCCCN2C(=O)c3cccc4cccc(c34)C2=O)CC1 [Compound 7a],19300 ± 5640 nM,1.4,13600 ± 2900 nM,
